# Measurements reported in US20080021056A1, “Fused, Tricyclic Sulfonamide Inhibitors of Gamma Secretase” (priority 2006, published 2008).
# pIC50: −log10 of the molar value.
# Target: T1, gamma secretase (Mus musculus, UniProt P49769)
# T1 construct: host or cells: brain of PDAPP transgenic mice (in vivo)
# Experiment: not given
# Conditions: PDAPP mice, acute inhibition, in-vivo; cited from earlier work
row,Structure (SMILES),Aβ in the brain
1,C[C@H](NC(=O)Cc1cc(F)cc(F)c1)C(=O)N[C@H](C(=O)OC(C)(C)C)c1ccccc1 [DAPT],reduction of Aβ in the brain

# Target: T2, gamma-secretase (Homo sapiens, UniProt P49768)
# T2 construct: partially purified extract of IMR-32 cell membranes as the gamma-secretase enzyme preparation; endogenous in cells; host or cells: IMR-32 cell membranes (partially purified extract)
# Experiment: Gamma-secretase APP enzyme assay
# Assay type: biochemical
# Conditions: cleavage of MBP-C125 Swe substrate at the Aβ40 site; partially purified extract of IMR-32 cell membranes; ELISA
# In short: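 IMR-32 membrane extract (25 Units) was preincubated with inhibitor for 30 min at 37 °C, then MBP-C125swe substrate (0.05 mg/ml) was added for 2 h at 37 °C in Hepes/NaCl with BigCHAPS and brain lipid (0.53 mg/ml). Reaction stopped with 0.1% SDS. Aβ40 neo-epitope product captured overnight at 4 °C and quantified by sandwich ELISA against a six-point standard curve.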
row,Structure (SMILES),pIC50
1,"O=S(=O)(c1ccc(C(F)(F)F)nc1)N1c2cc(OC(F)(F)F)ccc2-c2n[nH]cc2[C@H]1C1CC1 [(R)-4-cyclopropyl-7-(trifluoromethoxy)-5-(6-(trifluoromethyl)pyridin-3-ylsulfonyl)-4,5-dihydro-2H-pyrazolo[4,3-c]quinoline]",7.00 to 10.00
2,"O=S(=O)(c1ccc(C(F)(F)F)nc1)N1c2cc(C(F)(F)F)ccc2-c2[nH]ncc2[C@H]1C1CC1 [(R)-4-cyclopropyl-7-(trifluoromethyl)-5-(6-(trifluoromethyl)pyridin-3-ylsulfonyl-4,5-dihydro-1H-pyrazolo[4,3-c]quinoline]",7.00 to 10.00
3,"O=S(=O)(c1ccc(C(F)(F)F)nc1)N1c2ccc(C(F)(F)F)cc2-c2[nH]ncc2[C@H]1C1CC1 [(R)-4-cyclopropyl-8-(trifluoromethyl)-5-(6-(trifluoromethyl)pyridin-3-ylsulfonyl)-4,5-dihydro-1H-pyrazolo[4,3-c]quinoline]",7.00 to 10.00
4,"O=S(=O)(c1ccc(OC(F)(F)F)cc1)N1c2ccc(F)cc2-c2[nH]ncc2[C@H]1C1CC1 [(R)-4-cyclopropyl-8-fluoro-5-(4-(trifluoromethoxy)phenylsulfonyl)-4,5-dihydro-1H-pyrazolo[4,3-c]quinoline]",7.00 to 10.00
5,"COc1ccc(S(=O)(=O)N2c3ccc(F)cc3-c3[nH]ncc3[C@H]2C2CC2)cc1 [(R)-4-cyclopropyl-8-fluoro-5-(4-methoxyphenylsulfonyl)-4,5-dihydro-1H-pyrazolo[4,3-c]quinoline]",7.00 to 10.00
6,"CC[C@@H]1c2cn[nH]c2-c2cc(F)c(F)cc2N1S(=O)(=O)c1ccc(C(F)(F)F)cc1 [(R)-4-ethyl-7,8-difluoro-5-(4-(trifluoromethyl)phenylsulfonyl)-4,5-dihydro-1H-pyrazolo[4,3-c]quinoline]",7.00 to 10.00
